Reference: patent publication US20170082611A1, “Methods for Inhibiting Epithelial to Mesenchymal Transition by Inhibition of FOXS1” (Regenerative Research Foundation, priority 2015, published 2017)

Legend:
Primary human RPE lines = experiment: qPCR of EMT and RPE fate transcripts in primary RPE cultured with NAM for 21 days; assay type: cell-based; settings: 10 mM NAM, versus vehicle
Procedure: Cadaver donor globes were received from the National Disease Research Interchange (Philadelphia, Pa., USA), and RPE cells were isolated and grown to establish a RPE monolayer (Blenkinsop et al., (2015), Investigative Ophthalmology & Visual Science 56, 7085-7099; Blenkinsop et al., (2013), Methods Mol Biol 945, 45-65.). Primary human RPE lines were cultured in the presence of Nicotinamide (NAM) (Cat. #N0636; Sigma) at a concentration of 10 mM or vehicle (cell culture grade water) for 21 days. […] Additionally, RPE fate associated protein transcripts were tested by qPCR.

RPE cells [1] = experiment: Effect of NAM in the TNT-induced EMT model, qPCR; assay type: cell-based, human; settings: 10 mM NAM
Procedure: In a parallel experiment, the effect of NAM was tested in an EMT model. EMT was induced in RPE cells using 10 ng/ml TGFβ1 and TNFα. RPE cells were trypsinized and passaged into a 24 well plate. 24 hours after passaging, RPE cells were treated with TGFβ1 and TNFα (TNT condition) for 7 days. To test the effect of NAM, we added 10 mM NAM or vehicle to the medium used for EMT model (using TNT). EMT associated protein transcripts including FOXS1 were analyzed by qPCR.

RPE cells [2] = experiment: p38 blockade in TnT-induced RPE EMT (masses and EMT transcripts); assay type: cell-based, human; settings: TnT + 10 ng/ml SB202190, 5 days
Procedure: It was next reasoned that, if p38 is involved in the TnT-induced gene changes observed in SNAIL, SLUG and TWIST transcripts, then blocking p38 should result in the loss of TnT-induced EMT changes. Therefore an experiment was conducted to examine RPE-EMT with an additional condition of TnT+the p38 inhibitor SB202190.

RPE cells [3] = experiment: FOXS1 expression in EMT+p38 inhibitor condition; assay type: cell-based, human; settings: TnT + p38 inhibitor, 5 days
p38 = p38 immunostaining (localization) in RPE cells; settings: DMEM 5% FBS, 5 days
[4] = tested on: hTERT HMEnt (HME) breast epithelial cell line; experiment: EMT and FOXS1 transcripts in breast epithelial cells
RPE cells [5] = experiment: Screening assay for agents that induce EMT: RPE morphology by light microscope; assay type: cell-based, human; settings: 10 ng/ml, 5 days, DMEM/F12 with 5% FBS
Procedure: RPE were plated at a confluency of 30,000 cells in 1 well of a 24-well plate in DMEM/F12 with 5% FBS, adding TGFβ (10 ng/ml) or TNFα (10 ng/ml), or both. After 5 days, RPE morphology was assessed by a light microscope.

NC(=O)c1cccnc1 [NAM, Nicotinamide]
EMT associated marker FOXS1 (Primary human RPE lines): inhibited | EMT associated marker SNAIL (Primary human RPE lines): inhibited | RPE marker BEST1 expression (Primary human RPE lines): increased expression | RPE marker RPE65 expression (Primary human RPE lines): increased expression | EMT marker SNAIL (RPE cells [1]; as early as day 1 post induction of EMT): inhibited | EMT marker FOXS1 (RPE cells [1]; by day 3 post induction of EMT): clear inhibition | EMT marker SLUG (RPE cells [1]; by day 5 post induction of EMT): clear inhibition

Oc1ccc(-c2nc(-c3ccncc3)c(-c3ccc(F)cc3)[nH]2)cc1 [SB202190]
SLUG transcription (RPE cells [2]): stayed at or near control levels | SNAIL transcription (RPE cells [2]): stayed at or near control levels | TWIST transcription (RPE cells [2]): stayed at or near control levels | growth of three dimensional masses (RPE cells [2]): did not grow | FOXS1 gene transcription (RPE cells [3]): elevated in the TnT condition, but not when the p38 inhibitor was added

TGFβ: cytokine used at 10 ng/ml to induce EMT
p38 localization (p38): localized predominantly perinuclearly | FOXS1 transcript [4]: increased | RPE morphology (RPE cells [5]): acquired a fibroblastic morphology

TNFα
p38 localization (p38): found cytoskeletally | RPE morphology (RPE cells [5]): acquired a fibroblastic morphology
